Results taken from EP4186918A1 (Université de Rennes, priority 2021, dated 2023).
“Also recorded” adds a separate entry of the source.

Columns and labels:
[1] = Sedimentation after polymerization (aggregative character); type: physicochemical; details: 800 µM peptide; sedimentable peptide after polymerization as % of total concentration
Method: (§1) After thawing, a pre-dilution in milli Q H2O filtered through 0.2 µm was carried out in order to obtain a solution at a concentration close to the working concentration, greater than 1.25 times. This stock solution was left to incubate for 1 hour in a water bath at 25°C, and was then assayed spectrophotometrically and adjusted to the final working concentration of 1.25 times. The polymerization was initiated by adding 1/4 of the volume of 5X fibrillation buffer (50 mM MOPS, 750 mM NaCl, pH = 7.2) for a final concentration of 1X fibrillation buffer (10 mM MOPS, 150 mM NaCl, PH = 7.2). The samples were left to incubate for 1.5-2 hours at 25°C in a water bath. The study of the polymerization by fluorimetry was carried out under the same conditions, except that the 5X polymerization buffer was supplemented with Thioflavin T (ThT) at 100 µM in order to be able to observe the fluorescence. • (a) Determination of the Aggregative Character of the Peptides. […] The concentration of the supernatant was determined using the Beer-Lambert law A = ε x 1 x C; ε (peptides) = 1450 M^-1cm^-1. […] The fluorescence of the sample was then measured immediately after dilution by recording a fluorescence spectrum (470 nm to 600 nm) at an excitation wavelength of 450 nm (Perkin Elmer LS 55, PM 750, slit10).

[2] = Thioflavin T fluorescence after polymerization (amyloidogenic character); type: physicochemical; details: 800 µM peptide; ThT fluorescence normalized to 1p = 100%
Method: as §1

VQIVYK (PHF6) = experiment: Polymerization kinetics of 1p with selected peptides, ThT spectrofluorimetry; type: biochemical, human
Method: (§2) After thawing, a pre-dilution of the peptides of interest in sterile water was carried out in order to obtain, for each peptide, a solution at a concentration close to the working concentration. The peptides were then left to incubate at 4°C overnight. On the day of the experiment, the peptide solutions were sonicated for 10 minutes, left to stand for one hour at room temperature, sonicated again for 10 minutes and assayed spectrophotometrically at 280 nm (ε = 1450 M^-1cm^-1). The UV spectra were previously normalized to 0 at 300 nm. The solutions were prepared at concentrations of peptides 1/4 above that desired in the end. The polymerization of VQIVYK was initiated by adding 1/4 of the volume of fibrillation buffer 5X for a final concentration of fibrillation buffer 1X (10 mM MOPS, 150 mM NaCl, pH = 7.2).
The analyses were carried out on a spectrofluorometer (LS 55 from Perkin Elmer) fitted with a 4-cell rack. Black quartz cells (0.2x1.0 cm) were used. Excitation and emission wavelengths were 450 nm and 480 nm, respectively, and the sensitivity (Photomultiplier "PM") was set at 800 V. The size of the slits was varied from 3 nm to 6 nm. Normalization of each kinetics was performed with respect to the position of the cell on the rack.
The results were first smoothed over 10 points with the "smooth" option of the KaleidaGraph software. After normalization with respect to the position of the cells in the rack, each start of kinetics was adjusted to 0 before the addition of the fibrillation buffer. Finally, the results of each kinetics were normalized relative to the fluorescence intensity of the 1p control after 100 minutes of polymerization considered to be 100%.

[3] = Garnier-Delamarche representation combining sedimentation and ThT fluorescence; type: physicochemical; details: from sedimentation and ThT fluorescence
Method: as §1, with “slit10). […]” for “slit10).”

[4] = Polymerization kinetics of selected peptide alone, ThT spectrofluorimetry; type: physicochemical; details: 310 µM, ThT fluorescence
Method: as §2
The analyses were carried out on a spectrofluorometer (LS 55 from Perkin Elmer) fitted with a 4-cell rack. Black quartz cells (0.2x1.0 cm) were used. […]
The results were first smoothed over 10 points with the "smooth" option of the KaleidaGraph software. […] Finally, the results of each kinetics were normalized relative to the fluorescence intensity of the 1p control after 100 minutes of polymerization considered to be 100%.

[5] = Critical Assembly Concentration (CCa) by sedimentation; type: physicochemical; details: batch of VQIVYK used in the study; fibrillation buffer 1X
Method: The polymerization of VQIVYK was initiated by mixing the VQIVYK peptide (at various concentrations, 52 µM to 344 µM) with 1/4 of its volume in fibrillation buffer 5X. Once polymerized, the samples were sedimented at 16,900 g for 15 minutes. The concentration of free peptide was measured by assay nanodrop 800. The concentration of polymerized peptide was thus determined using the following the relation: [1p]pellet = [1p]initial −[1p]supernatant [formula]

With Ac-YQIVVK-NH2 [6tp, YQIVVK] as the substance, how does the “% sedimentation” value [1] read?
Its value is 0%.

And the “% fluorescence” value [2]?
Its value is 1.3%.

And the “category of polymerization kinetics of 1p in presence of peptide” value (VQIVYK (PHF6); [1p] = 155 µM, [selected peptide] = 310 µM)?
Its value is “slow compared to 1p alone and which have a lower fluorescence intensity”.

What about the “effect on polymerization of 1p” value (VQIVYK (PHF6); [1p] = 155 µM, [selected peptide] = 310 µM, thresholds 50% rate, 100% fluorescence intensity) of the same substance?
The value was “clearly inhibited; also recorded: marked inhibitory effect”.

And the “classification of inhibitory effect (3 categories)” value (VQIVYK (PHF6); inhibition of PHF6 aggregation)?
The value was “with a strong inhibitory effect”.

And the “persistence of inhibitory effect” value (VQIVYK (PHF6); polymerization followed for 15 hours)?
Its value is “the inhibitory effect persisted”.

And the “amyloidogenic and aggregative character” value [3]?
Its value is “weakly amyloidogenic and weakly aggregative”.

And the “polymerization of peptide alone” value [4]?
The value was “do not polymerize on their own”.

Which “% sedimentation” value [1] does the source give for Ac-VQIVYK-NH2 [1p, VQIVYK] here?
The value was 94%.

What about the “% fluorescence” value [2] of the same substance?
The value was 100%.

And the “Critical Assembly Concentration (CCa)” value [5]?
Its value is 32 µM.

And the “amyloidogenic and aggregative character” value [3]?
The value was “strong amyloidogenic and self-aggregative potential”.
